Columns and labels:
PCSK9 mRNA = experiment: qRT-PCR of PCSK9 mRNA in primary hepatocytes; type: cell-based, human; conditions: donor 4178, 3 μM, relative to GUSB
[1] = system: mTOR signaling of phospho-4E-BP1; conditions: cited from earlier work
[2] = system: triglyceride content in HepG2 cells; experiment: AdipoRed staining and triglyceride quantification of lipid droplet fraction in HepG2 cells; type: cell-based; conditions: 72 hours; for TG (nmol/ug protein) (±Standard Deviation): lipid droplet fraction
Description: HepG2 cells were treated with OSI-027 as described in Example 1. DMSO was used as a control. After treatment, the cells were stained with the AdipoRedTM Assay Reagent (cat #PT-7009) according to the manufacturer's instructions. Parallel treatment samples were processed for triglyceride quantification. For triglyceride quantification, HepG2 cells were treated with OSI-027 for 72 hours. Cells were collected and the lipid droplet (LD) fraction of the cell lysate enriched using the lipid droplet isolation kit (Cell Biolabs Inc., #[…]) per the manufacturer's instructions. The triglyceride content of the LD-enriched fraction measured using a Triglyceride Quantification Kit (Biovision Inc., #K622) per manufacturer's protocol, with a fluorimetric read-out.

COL1A1 mRNA = experiment: qRT-PCR of COL1A1 mRNA in human primary hepatic stellate cells; type: cell-based; conditions: 3 μM, relative to GAPDH
Description: Cells were plated at a density of 17000 cells/well in a 96-well plate and allowed to adhere overnight. The following day cell culture media was replenished with the indicated concentration(s) of compound for 18 hours. […] Medium was removed after 18 hours and cells were processed for further analysis, e.g. qRT-PCR.
Analysis of the fold changes in expression as measured by qRT-PCR were performed using the technique below. The control was DMSO, and the treatment was the selected compound (CPD). The internal control was GAPDH or B-Actin (or otherwise indicated), and the gene of interest is the target. First, the averages of the 4 conditions were calculated for normalization: DMSO:GAPDH, DMSO:Target, CPD: GAPDH, and CPD:Target. Next, the ΔCT of both control and treatment were calculated to normalize to internal control (GAPDH) using (DMSO:Target)−(DMSO:GAPDH)=ΔCT control and (CPD:Target)−(CPD: GAPDH)=ΔCT experimental. Then, the ΔΔCT was calculated by ΔCT experimental−ΔCT control.
Candidate compounds were tested in stellate cells for their ability to modulate PNPLA3 and COL1A1. Stellate cells were treated with serial dilutions of the compounds, ranging from 0.1 μM to 100 μM. Changes in PNPLA3 (or COL1A1) mRNA levels in stellate cells were analyzed with qRT-PCR.

## COc1cccc2cc(-c3nc([C@H]4CC[C@H](C(=O)O)CC4)n4ncnc(N)c34)[nH]c12 [OSI-027]
PCSK9 mRNA
  Primary Hepatocytes 4178 PCSK9 (fold change in mRNA expression): 0.69
[1]
  IC50: 1 µM
[2]; 0.33 μM
  TG (nmol/ug protein) (±Standard Deviation): 0.24 ± 0.02828 nmol/ug protein
[2]; 1 μM
  TG (nmol/ug protein) (±Standard Deviation): 0.235 ± 0.03535 nmol/ug protein
[2]
  triglyceride content (in words): reduced triglyceride content in HepG2 cells
COL1A1 mRNA
  Primary Stellate cells COL1A1 (fold change in mRNA expression): 0.51

— patent US20220107328A1, “METHODS OF TREATING LIVER DISEASES” (Camp4 Therapeutics Corporation, priority 2018, published 2022)
